Measurements published in patent US7815895B2, “Method for activating efferent sympathetic nerves innervating adipose tissues to improve obesity and symptoms associated therewith” (priority 2007, dated 2010).

How the values were obtained:
[1] = tested on: Male SD rats with high fat diet-induced obesity; experiment: Perivagal capsaicin or vehicle 7 days prior to LacZ or PPARγ2 adenovirus; assay type: in vivo; conditions: perivagal capsaicin treatment
Experimental: Table 1. Afferent vagal activation from the liver is involved in remote effects of hepatic PPARγ2 expression. (Upper Column) Mice were subjected to hepatic vagotomy or sham operation 7 days prior to administration of LacZ or PPARγ2 adenovirus. Resting oxygen consumption (VO2) was measured on day 3 after adenoviral injection. Mice were sacrificed after a 10 hour fast on day 7 after adenoviral injection. (Lower Column) Male SD rats with high fat diet-induced obesity were subjected to application of capsaicin or vehicle to the vagal hepatic branch 7 days prior to administration of LacZ or PPARγ2 adenovirus. Seven days after adenoviral administration, epididymal fat weights were determined. P values: compared to LacZ-mice, by unpaired t test. n.s.: not significant.
Hepatic vagotomy involves dissection of both afferent and efferent vagal branches innervating the liver. To determine whether the remote effects of hepatic PPARγ2 expression are mediated by the afferent vagus, we applied a specific afferent neurotoxin, capsaicin, to the hepatic branch of the vagus of diet-induced obese male SD rats. Seven days after perivagal application of capsaicin or vehicle, we administered recombinant adenovirus encoding LacZ or PPARγ2. […] These observations indicate selective de-afferentation of the hepatic branch of the vagus. […]

[2] = tested on: hepatic branch of the vagus; experiment: Perivagal capsaicin: vagal nerve immunohistochemistry and transmission electron microscopy; assay type: in vivo, rats; conditions: 7 days after perivagal application
Experimental: SD rats were treated with perivagal application of vehicle or capsaicin, 7 days prior to removal of the hepatic vagal nerves from vehicle-treated rats (veh) and capsaicin-treated rats (cap), and the esophgeal branch of the posterior vagal trunk from capsaicin-treated rats (eso). (A) Immunohistochemistry of the vagal nerves with anti-calcitonin gene-related peptide (CGRP) and anti-S100 antibodies. Magnification: ×400. The graphs show immunohistological staining intensities and the data are expressed as percentages of the intensities in vehicle-treated vagal nerve. (B) Transmission electron microscopy of the vagal nerves. While myelinated fibers are intact (arrows), unmyelinated fibers have been selectively degraded in perivagal capsaicin-treated nerves (arrowheads). Representative images from two rats of each group are shown.
After 4 weeks of a high-fat diet starting at 5 weeks of age, male SD rats were subjected to selective hepatic vagal afferent blockade. The hepatic branch of this vagal trunk was exposed as described above, then loosely tied with a cotton string immersed with or without capsaicin (Sigma Chemical Co, St Louis, Mo., USA) dissolved in olive oil (5% wt/vol). The cotton string was removed 30 min later and the abdominal incision was closed. Seven days after perivagal application of capsaicin or vehicle, recombinant adenovirus encoding LacZ or PPARγ2, at a dose of 6.5×10^8 plaque forming units (PFU), was injected via the tail vein.
Livers, WAT and BAT were removed and fixed with 10% formalin and embedded in paraffin. Tissue sections were stained with hematoxylin eosin. Total adipocyte areas were traced manually. Brown and white adipocyte diameters were measured in 150 or more cells per mouse in each group. For vagal nerve immunohistochemistry, SD rats were anesthetized with pentobarbiturate (60 mg/kg), and then perfused transcardially with saline and sequentially with 4% paraformaldehyde in 0.2 M phosphate buffer (PB; pH 7.4). […] The intensities of bands were quantified with the NIH image 1.62 program. […]

[3] = tested on: PPARγ2-mice and LacZ-mice; experiment: Bupranolol loading test (serum FFA); assay type: in vivo; conditions: fed state, 10 mg/kg intraperitoneal
Experimental: (A) Plasma lipid parameters (left: total cholesterol, middle: triglyceride (TG), right: free fatty acids (FFA)) in LacZ-mice (white bars) and PPARγ2-mice (black bars) on day 7 after adenoviral administration were measured in the 10 hour fasted state. (B-C) Relative amounts of UCP1 (left), PGC-1α (middle) and HSL (right) in brown adipose tissue (B) and epididymal fat tissue (C) from ad libitum-fed LacZ-mice (white bars) and PPARγ2-mice (black bars) on day 7 after adenoviral administration. (D) A pan-β adrenergic blocker, bupranolol, was injected intraperitoneally into LacZ-mice (open circles) and PPARγ2-mice (closed circles) in the fed state, on day 5 after adenoviral administration, followed by measurement of serum FFA levels. Data were expressed as percentages of serum FFA levels immediately before intraperitoneal bupranolol loading (10 mg/kg of body weight). Date are presented as mean±SD. **P<0.01 and *P<0.05, compared to control mice, by unpaired t test.
Glucose tolerance tests were performed on mice fasted for 10 hours as previously described (Y. Ishigaki et al., Diabetes 54, 322 (2005)). Insulin tolerance tests were performed on ad libitum fed mice. […] Serum FFA levels were measured immediately before and at 30 and 60 min after injection of inraperitoneal bupranolol (10 mg/kg of body weight, Kaken Pharmaceutical Co., Ltd. Tokyo, Japan).

Row | SMILES | hepatic PPARγ2 expression-induced decrease in WAT weight [1] | unmyelinated fibers in the vagal hepatic branch (electron microscopy) [2] | Expression of calcitonin gene-related peptide in vagal nerve ([2]; versus vehicle) | immunoreactivity for S100 proteins ([2]; versus vehicle) | serum FFA ([3]; LacZ-mice) | serum FFA ([3]; PPARγ2-mice)
1 | COc1cc(CNC(=O)CCCC/C=C/C(C)C)ccc1O [capsaicin] | completely blocked | selective degradation | markedly decreased | similar |  | 
2 | Cc1ccc(Cl)c(OCC(O)CNC(C)(C)C)c1 (stereo not drawn) [bupranolol] |  |  |  |  | no effect | decreased
